Test results from BindingDB's records for doi:10.1016/S0960-894X(01)81044-1 (1991).

How the values were obtained:
[1] = Inhibitory activity against sweet almond Beta-glucosidase
[2] = as above; remark: listed apart in the source

**Q.** With `OC[C@H]1OC[C@@H](O)[C@H]1O` [(2R,3R,4R)-2-Hydroxymethyl-tetrahydro-furan-3,4-diol] as the molecule, how does the Ki [1] read?
**A.** 14.8 mM

**Q.** For `OC[C@H]1OC[C@@H](O)[C@@H]1O` [(2R,3S,4R)-2-Hydroxymethyl-tetrahydro-furan-3,4-diol], which Ki [1] is on record?
**A.** 36.2 mM

**Q.** With `OC[C@H]1OC[C@H](O)[C@@H](O)[C@@H]1O` [(2R,3S,4R,5S)-2-(hydroxymethyl)oxane-3,4,5-triol] as the molecule, how does the Ki [1] read?
**A.** 60 mM

**Q.** For `O[C@H]1[C@H](O)COC[C@@H]1O` [(3S,4R,5R)-Tetrahydro-pyran-3,4,5-triol], which Ki [1] is on record?
**A.** 39 mM

**Q.** With `NCCc1cn(C(=O)c2ccccc2)cn1` [[4-(2-Amino-ethyl)-imidazol-1-yl]-phenyl-methanone] as the molecule, how does the Ki [2] read?
**A.** 0.00011 mM
